Like-named read-outs stand apart in the source and are kept apart here. No end group written: not given here.
Experiments:
Rap^105 = assay: Thermal shift assay of Rap^105 with synthetic peptides; assay type: binding, phage phi105; conditions: 100 μm peptide, without supernatant incubation
Protocol: (§1) The thermal shift assay was conducted in a CFX Opus Real-Time PCR system (Biorad). Samples of 20 μl containing 20× Sypro Orange (Sigma-Aldrich) and 50 μm of protein in a 20 mM Tris (pH 8) and 250 mM NaCl buffer or filtered supernatant in peptide maturation assays (see below) were loaded in 96-well PCR plates. In the cases where peptide interaction was analyzed, synthetic peptides at a final concentration of 100 μm were added to the assays. Samples were heated from 20 to 85°C in steps of 1 degree. Fluorescent intensity was plotted versus temperature and integrated with either CFX Opus Real-Time PCR automate model or GraphPad Prism software using a Boltzmann model to calculate melting temperatures.

[1] = tested on: extracellular proteases in supernatants of B. subtilis 168, WB800 and individual protease mutants; assay: Peptide maturation assay with B. subtilis supernatants, read by Rap^105 thermal shift; assay type: biochemical, Bacillus subtilis; conditions: 100 μm peptide, 1 h room temperature; 8 single protease mutants
Protocol: Overnight cultures of either B. subtilis strains 168, WB800, Δmpr, Δbpr, ΔaprE, Δepr, ΔwprA, Δvpr, ΔnprB, ΔnprE in GM1 media were diluted 1:20 into GM1 media and incubated at 37°C at 250 rpm. After 2 h, the OD600 were measured and adjusted to 0.5 with GM1 media, and 1 ml of bacterial cultures were centrifuged at 8,000 g for 2 min at room temperature and the supernatants were filtered using 0,2 μm nitrocellulose filters; 1 μl of 10 mM synthetic version of the mature pheromones (RRGHTA, RRGHTAS, SRGHTS, RGHTS, ERPVGT, Imat1^3T, Imat2^3T, Imat1^105, Imat2^105, and Imat3^105) were added to 99 μl of supernatant obtaining a final concentration of 100 μm and incubated for 1 h at room temperature. After incubation, reaction was stopped by incubation at 95°C for 5 min and sample was kept and used in Thermal Shift Assays (see before). In the kinetic assays, samples were inactivated at different times by incubation at 95°C for 5 min. Experiments were validated by experimental triplicates of 3 biological replicates.
as §1

[2] = tested on: Rap^3T (PsrfA-3xYFP competence reporter); assay: Competence reporter assay (PsrfA-3xYFP) in strain overexpressing Rap^3T; assay type: cell-based, Bacillus subtilis; conditions: strain 9834 hsRap(phi3T) Psrf-YFP, 1mM IPTG, 4hrs in MC, peptides added after 1 hr; for YFP, Mean: mean of 3 repeats
Text: (§2) Bacillus strains AES9822 (SacA::PsrfA-3xYFP Cm), AES9824 (SacA::PspoIIG-3xYFP Cm), AES9834 (sacA::Psrf-3xYFP cm amyE::hsRap^3T spec), and AES9836 ([…] cm amyE::hsRap^3T spec) were constructed by natural transformation of the pAEC1003, pAEC1103, and pAEC2836 (see next section) plasmids into a PY79;xpf background Bacillus subtilis strain.
For competence experiments, the expression levels of the srf promoter reporter were determinate in a liquid culture generated from a single colony that was inoculated into MC competence media. The strains were grown at 37° with shaking at 220 RPM, with or without addition of 1 mM IPTG. […]

[3] = tested on: Rap^3T (PspoIIG-3xYFP sporulation reporter); assay: Sporulation assay (PspoIIG-3xYFP reporter) in strain overexpressing Rap^3T; assay type: cell-based, Bacillus subtilis; conditions: strain 9836 hsRap(phi3T) PspoIIG-YFP, 1mM IPTG, 6 hrs in DSM, peptides added after 4.5hrs; for Mean %ON: mean of 3 repeats
Text: as §2
For sporulation experiments, the expression levels of spoIIG promoter reporter were determinate in a liquid culture from an overnight starter in LB were diluted 1:100 into Schaeffer’s sporulation medium (DSM). The strains were grown at 37° with shaking at 220 RPM, with or without addition of 1 mM IPTG. After 4.5 h of growth, peptides were added at a concentration of 10 μm. Following an additional 1.5 h of growth, YFP fluorescence was measured using a Beckman Coulter cytoflex flow cytometer.

Rap^3T = assay: Microscale thermophoresis (MST) of peptide binding to Rap^3T; set-up: species or system Bacillus phage phi3T
Protocol: Rap^3T was fluorescently labeled with NT-647 amine reactive dye from the Monolith NT Protein Labeling kit RED-NHS (NanoTemper Technologies) according to the manufacturer’s instructions. Briefly, 100 μm solution of the protein was mixed with 3× dye solution, incubated 30 min in dark, and then purified by gravity in a 5 ml size exclusion column equilibrated with dialysis buffer (20 mM Tris-HCl (pH 8), 250 mM NaCl) supplemented with 0.1% pluronic and 5% glycerol to remove free dye. Rap^105 was fluorescently labeled using His-Tag Labeling Kit RED-tris-NTA 2nd Generation. Briefly, 500 nM of protein was mixed with 5 μm dye in PBS supplemented with 0,02% of tween incubated in dark at room temperature for 30 min and centrifuged at 10,000 g for 10 min at 4°C, transferred to a fresh tube, and used in the assays immediately. Labeled proteins were used at a final optimized concentration of 20 nM in the case of Rap^3T and 250 nM in the case of Rap^105. For the measurements of EC50, a 16-point 2-fold serial dilution (ranged from 2 to 3 × 10^−5 μm) of the peptides were prepared in presence of the corresponding labeled Rap protein. After 15-min incubation at room temperature, samples were filled into standard Capillaries (K005, NanoTemper Technologies) and MST measurements were performed on a Monolith NT.115 (NanoTemper Technologies) in RED channel using 60% to 75% of LED excitation power and medium or high MST power for Rap^3T or Rap^105, respectively. […] Data analyses were performed with M.O. Affinity Analysis software (NanoTermper Technologies) applying cooperative (Hill coefficient) and non-cooperative (Kd model) models, with the first one yielding better fitting values.

[4] = tested on: extracellular proteases in supernatants of B. subtilis 168, WB800 and individual protease mutants; assay: Peptide maturation assay with B. subtilis supernatants, read by Rap^3T thermal shift; assay type: biochemical, Bacillus subtilis; conditions: 100 μm peptide
Protocol: Overnight cultures of either B. subtilis strains 168, WB800, Δmpr, Δbpr, ΔaprE, Δepr, ΔwprA, Δvpr, ΔnprB, ΔnprE in GM1 media were diluted 1:20 into GM1 media and incubated at 37°C at 250 rpm. […] After incubation, reaction was stopped by incubation at 95°C for 5 min and sample was kept and used in Thermal Shift Assays (see before). In the kinetic assays, samples were inactivated at different times by incubation at 95°C for 5 min. Experiments were validated by experimental triplicates of 3 biological replicates.
as §1

[5] = tested on: WprA and Bpr proteases (B. subtilis supernatants); assay: Kinetic (time course) maturation assay of Imat1^3T in 168, WprA and Bpr KO supernatants; assay type: biochemical, Bacillus subtilis; conditions: samples inactivated at different times, Rap^3T thermal shift
Text: Fig 2 Propeptide maturation of Phr^3T and Phr^105 propeptides. Thermal shift assay experiments for maturation effect of supernatants from B. subtilis 168 and WB800 strains in immature version of the pheromones codified in Phr^3T (a) and Phr^105 (e), mean values of triplicates are plotted, 3 standard deviations from negative control maturation (WB800 supernatant) are highlighted in red. Error bars mark from the minimum to maximum values observed in the triplicates. Thermal shift assays with supernatants from B. subtilis 168, WB800, and individual protease mutant strains in maturation of peptides Imat2^3T(b), Imat1^105 (f), Imat2^105 (g) and Imat3^105 (h), mean values of triplicates are plotted, 3 standard deviations from negative control maturation (WB800 supernatant) are highlighted in red. Error bars mark from the minimum to maximum values observed in the triplicates. (c) Thermal shift slopes of the effect of individual mutations of 8 protease genes on Imat1^3T peptide maturation. (d) Kinetic assays comparing Imat1^3T peptide maturation in 168 supernatant and supernatants of WprA and Bpr protease KO mutants, relative maturation was calculated as fluorescence of the peak corresponding with the mature pheromone divided by the fluorescence of the peak corresponding with the non-maturated pheromone. […]

[6] = target: Rap^3T (Bacillus phage phi3T); assay: thermal shift assay; Sypro Orange, 50 μm protein, 100 μm synthetic peptide, 20 mM Tris (pH 8), 250 mM NaCl (or filtered supernatant in the maturation assays), heated from 20 to 85°C
[7] = target: Rap^3T (Bacillus phage phi3T); assay: MST; Rap^3T labelled with NT-647 (RED-NHS) at 20 nM; peptides in a 16-point 2-fold dilution from 2 to 3 x 10^-5 μm; 20 mM Tris-HCl (pH 8), 250 mM NaCl, 0.1% pluronic, 5% glycerol; 15 min at room temperature; Hill model

ERPVGTLKLA [Imat1^105, immature synthetic peptide […]]
stabilization of Rap^105 in thermal shift assay (Rap^105): minimal stabilization
maturation by supernatants of individual protease mutants of B. subtilis 168 (Rap^105 thermal shift) [1]: only for ΔwprA mutants

LKLAERPVGT [Imat2^105, immature synthetic peptide […]]
stabilization of Rap^105 in thermal shift assay (Rap^105): destabilization
maturation by supernatants of individual protease mutants of B. subtilis 168 (Rap^105 thermal shift) [1]: maturated for all the supernatants

RRGHTASIGFTDGHSYDIA
YFP, Mean [2]: 8810.67
YFP, repeat I [2]: 5838
YFP, repeat II [2]: 10641
YFP, repeat III [2]: 9953
Mean %ON [3]: 42.9%
%ON (YFP), repeat I [3]: 59.6%
YFP, repeat I [3]: 5294
% ON (YFP), repeat II [3]: 39.8%
YFP, repeat II [3]: 2641
% ON (YFP), repeat III [3]: 29.3%
YFP, repeat III [3]: 2055

RRGHTASIGFTDGHSYDIA [Imat1^3T]
binding to Rap^3T (MST), in words (Rap^3T; MST): weak affinity
maturation by B. subtilis 168 supernatant (Rap^3T thermal shift) ([4]; 1 h room temperature in filtered supernatant (GM1, OD600 0.5), stopped 95°C 5 min): effectively processed
maturation by supernatants of individual protease mutants of B. subtilis 168 (Rap^3T thermal shift) ([4]; 1 h room temperature, 8 single protease mutants): the supernatants from the ΔwprA and Δbpr mutants showed 2 slopes
maturation by B. subtilis WB800 (protease-deficient) supernatant (Rap^3T thermal shift) ([4]; 1 h room temperature, strain mutant in nprE, nprB, aprE, epr, bpr, mpr, vpr, wrpA): no increase in Rap^3T stabilization was observed
time course maturation with Δbpr supernatant [5]: fully mature the peptide at longer incubation times
time course maturation with ΔwprA supernatant [5]: minimal maturation levels even at these times

RRGHTASIGFTDGHSYDIA [Long1]
EC50 (Rap^3T; MST, Hill model, target 2e-8, MST-Power Medium, Nano - RED, 25.0°C, replicate 1 (first merge-set, c1), read-out: EC50 (Hill fit)): 133 nM
EC50 (Rap^3T; MST, Hill model, target 2e-8, MST-Power Medium, Nano - RED, 25.0°C, replicate 2 (second merge-set, c4), read-out: EC50 (Hill fit)): 134 nM
EC50 (Rap^3T; MST, Hill model, target 2e-8, MST-Power Medium, Nano - RED, 25.0°C, replicate 3 (third merge-set, c7), read-out: EC50 (Hill fit)): 186 nM

SIGFTDGHSYDIASRGHTS
YFP, Mean [2]: 8018.67
YFP, repeat I [2]: 5205
YFP, repeat II [2]: 10226
YFP, repeat III [2]: 8625
Mean %ON [3]: 37.1%
%ON (YFP), repeat I [3]: 51.1%
YFP, repeat I [3]: 4889
% ON (YFP), repeat II [3]: 30.7%
YFP, repeat II [3]: 2305
% ON (YFP), repeat III [3]: 29.5%
YFP, repeat III [3]: 2121

SIGFTDGHSYDIASRGHTS [Long2]
EC50 (Rap^3T; MO.Affinity export, one merged set, target 2e-8, On Time evaluation, hot region 4-5, excitation power 10, confidence limits 0 and #NUM! (no real fit), read-out: EC50 (Hill fit), merged set): 19800 nM

SSDVKITERPVGT [Imat0^105, immature synthetic peptide […]]
stabilization of Rap^105 in thermal shift assay (Rap^105): destabilization
maturation by supernatants of individual protease mutants of B. subtilis 168 (Rap^105 thermal shift) [1]: reduced or null maturation activity in ΔnprE, Δbpr, and ΔwprA mutants

RRGHTA
dTm [6]: 75 °C
stabilization of the denaturation temperature [6]: > 20 °C
EC50 [7]: 5.28 nM

RRGHTAS
stabilization of the denaturation temperature [6]: > 20 °C
EC50 [7]: 6.7 nM

SRGHTS
stabilization of the denaturation temperature [6]: > 20 °C
EC50 [7]: 20.8 nM

RGHTS
stabilization of the denaturation temperature [6]: > 20 °C
EC50 [7]: 69.8 nM

From PMC11343458, “Extracellular proteolysis of tandemly duplicated pheromone propeptides affords additional complexity to bacterial quorum sensing” (PLOS Biology, 2024)
